# Test results taken from patent US8940742B2, “Heterocyclic compounds and uses thereof” (Infinity Pharmaceuticals, Inc., priority 2012, dated 2015).
# pIC50: −log10 of the molar value.
# Target: RAJI p110 δ (Homo sapiens, UniProt O00329)
# Assay: RAJI p110 δ cellular assay (phospho-AKT);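 also: potency based on lowered phosphorylated AKT in RAJI cells, as a readout of PI3K-δ dependent B-cell receptor signaling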
# Settings: not given
# Sequence of RAJI p110 δ (O00329 whole entry): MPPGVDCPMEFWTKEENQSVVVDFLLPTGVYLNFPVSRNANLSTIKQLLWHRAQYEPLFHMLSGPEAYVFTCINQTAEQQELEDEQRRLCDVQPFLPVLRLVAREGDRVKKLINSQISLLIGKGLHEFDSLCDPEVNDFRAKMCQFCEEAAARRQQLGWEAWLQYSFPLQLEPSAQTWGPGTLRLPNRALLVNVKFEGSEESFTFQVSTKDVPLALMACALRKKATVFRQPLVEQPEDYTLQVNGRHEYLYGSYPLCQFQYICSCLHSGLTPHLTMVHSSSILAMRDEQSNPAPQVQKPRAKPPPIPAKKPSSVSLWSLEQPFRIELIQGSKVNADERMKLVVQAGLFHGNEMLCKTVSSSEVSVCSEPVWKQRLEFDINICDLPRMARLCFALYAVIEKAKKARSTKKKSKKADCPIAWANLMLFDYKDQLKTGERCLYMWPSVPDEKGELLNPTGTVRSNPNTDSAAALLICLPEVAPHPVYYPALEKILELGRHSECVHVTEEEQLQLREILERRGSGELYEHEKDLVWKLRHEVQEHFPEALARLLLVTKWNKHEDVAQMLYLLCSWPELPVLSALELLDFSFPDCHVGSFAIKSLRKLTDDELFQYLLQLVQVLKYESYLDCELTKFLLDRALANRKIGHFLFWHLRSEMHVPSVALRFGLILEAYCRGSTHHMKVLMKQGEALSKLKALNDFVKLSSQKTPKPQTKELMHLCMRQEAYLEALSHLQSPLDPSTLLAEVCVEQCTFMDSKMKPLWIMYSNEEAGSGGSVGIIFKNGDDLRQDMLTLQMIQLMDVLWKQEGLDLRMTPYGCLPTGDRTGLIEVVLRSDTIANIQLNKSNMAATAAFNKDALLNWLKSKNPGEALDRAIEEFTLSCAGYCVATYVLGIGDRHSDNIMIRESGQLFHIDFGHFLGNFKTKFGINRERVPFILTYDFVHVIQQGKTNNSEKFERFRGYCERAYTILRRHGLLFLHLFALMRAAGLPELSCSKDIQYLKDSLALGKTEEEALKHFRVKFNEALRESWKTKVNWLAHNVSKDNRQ
# Sequence of RAJI p110 δ (P27986 whole entry partner): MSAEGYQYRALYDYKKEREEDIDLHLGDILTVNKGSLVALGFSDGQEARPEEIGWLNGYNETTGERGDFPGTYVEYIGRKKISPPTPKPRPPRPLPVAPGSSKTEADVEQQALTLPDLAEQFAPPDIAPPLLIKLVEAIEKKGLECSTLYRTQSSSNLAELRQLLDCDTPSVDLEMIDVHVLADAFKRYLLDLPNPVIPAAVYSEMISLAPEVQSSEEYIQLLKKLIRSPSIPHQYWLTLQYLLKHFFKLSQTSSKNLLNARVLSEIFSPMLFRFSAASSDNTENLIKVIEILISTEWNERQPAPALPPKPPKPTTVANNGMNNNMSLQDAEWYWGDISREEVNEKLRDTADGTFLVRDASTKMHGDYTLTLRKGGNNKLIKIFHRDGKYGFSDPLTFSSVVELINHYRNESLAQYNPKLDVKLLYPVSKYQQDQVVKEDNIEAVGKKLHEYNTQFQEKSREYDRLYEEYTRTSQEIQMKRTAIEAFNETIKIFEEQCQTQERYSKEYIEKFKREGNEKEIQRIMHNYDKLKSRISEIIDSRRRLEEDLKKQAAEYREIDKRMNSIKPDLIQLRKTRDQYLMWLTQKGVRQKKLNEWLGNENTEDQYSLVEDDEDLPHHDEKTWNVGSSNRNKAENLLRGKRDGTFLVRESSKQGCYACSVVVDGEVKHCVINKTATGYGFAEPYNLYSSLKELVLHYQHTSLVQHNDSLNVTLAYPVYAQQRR
row,SMILES,pIC50
1,C[C@H](NC(=O)c1nc(-c2cccc(O)c2)cnc1N)c1cc2cccc(Cl)c2c(=O)n1-c1ccccc1 [Compound 104],6.00 to 7.00
2,C[C@H](NC(=O)c1csc2cccnc12)c1cc2cccc(Cl)c2c(=O)n1-c1ccccc1 [Compound 68],5.00 to 6.00
3,C[C@H](NC(=O)c1nc(-c2cncc(NS(C)(=O)=O)c2)cnc1N)c1cc2cccc(Cl)c2c(=O)n1-c1ccccc1 [Compound 107],6.00 to 7.00
4,C[C@H](NC(=O)c1nc(-c2ccc(NS(C)(=O)=O)cc2)cnc1N)c1cc2cccc(Cl)c2c(=O)n1-c1ccccc1 [Compound 103],5.00 to 6.00

# Continued, values first:
row,pIC50,SMILES
1,6.00 to 7.00,COc1cc(-c2cccc3cc([C@H](C)NC(=O)c4c(N)nn5cccnc45)n(-c4cccc(F)c4)c(=O)c23)ccn1 [Compound 189]
2,> 7.00,Cc1ccn2nc(N)c(C(=O)N[C@@H](C)c3cc4cccc(Cl)c4c(=O)n3-c3ccccc3)c2n1 [Compound 142]
3,> 7.00,COc1ccc(-c2cccc3cc([C@H](C)NC(=O)c4c(N)nn5cccnc45)n(-c4ccccc4)c(=O)c23)cn1 [Compound 223]
4,> 7.00,CC#Cc1cccc2cc([C@H](C)NC(=O)c3c(N)nn4cccnc34)n(-c3ccccc3)c(=O)c12 [Compound 167]

# Target: T1, PI3K β (Homo sapiens, UniProt P42338)
# T1 construct: purchased Millipore
# Assay: PI3-Kinase Promega ADP-Glo Max assay
# Type: biochemical
# Settings: 40 nM kinase, 3 mM ATP, 500 uM diC8-PtdInsP
# Method: (§1) Promega ADP-Glo Max assay kit (Cat. No. V7002) was utilized to determine IC50 values for α, β, δ and γ isoforms of human Class I PI3 kinases (Millipore). Samples of kinase (20 nM α or δ, 40 nM β or γ isoform) were incubated with compound for 15 minutes at room temperature in reaction buffer (15 mM HEPES pH 7.4, 20 mM NaCl, 1 mM EGTA, 0.02% Tween 20, 10 mM MgCl2, 0.2 mg/mL bovine-γ-globulins) followed by addition of ATP/diC8-PtdInsP mixture to give final concentrations of 3 mM ATP and 500 uM diC8-PtdInsP. Reactions were incubated at room temperature for 2 hours followed by addition of 25 uL of stop solution. After a 40-minute incubation at room temperature, 50 uL of Promega detection mix was added followed by incubation for 1 hour at room temperature. Plates were then read on Envision plate reader in luminescence mode. Data was converted to % inhibition using the following equation below:
# (§2) [formula] where S is the sample luminescence, Pos is a positive control without added PI3K, Neg is the negative control without added compound. Data was then plotted as % inhibition vs compound concentration. Data fit to 4 parameter logistic equation to determine IC50 values: […]
# (§3) Certain compounds provided herein were tested in PI3-Kinase Promega Assay using procedures as described above to determine IC50 values for α, β, δ and/or γ isoforms.
row,SMILES,pIC50
1,C[C@H](NC(=O)c1nc(-c2cccc(O)c2)cnc1N)c1cc2cccc(Cl)c2c(=O)n1-c1ccccc1 [Compound 104],5.00 to 6.00
2,C[C@H](NC(=O)c1nc(-c2cncc(NS(C)(=O)=O)c2)cnc1N)c1cc2cccc(Cl)c2c(=O)n1-c1ccccc1 [Compound 107],> 7.00
3,C[C@H](NC(=O)c1nc(-c2ccc(NS(C)(=O)=O)cc2)cnc1N)c1cc2cccc(Cl)c2c(=O)n1-c1ccccc1 [Compound 103],< 5.00

# Other lines, results leading:
row,pIC50,SMILES
1,< 5.00,COc1cc(-c2cccc3cc([C@H](C)NC(=O)c4c(N)nn5cccnc45)n(-c4cccc(F)c4)c(=O)c23)ccn1 [Compound 189]
2,> 7.00,Cc1ccn2nc(N)c(C(=O)N[C@@H](C)c3cc4cccc(Cl)c4c(=O)n3-c3ccccc3)c2n1 [Compound 142]
3,< 5.00,COc1ccc(-c2cccc3cc([C@H](C)NC(=O)c4c(N)nn5cccnc45)n(-c4ccccc4)c(=O)c23)cn1 [Compound 223]
4,5.00 to 6.00,CC#Cc1cccc2cc([C@H](C)NC(=O)c3c(N)nn4cccnc34)n(-c3ccccc3)c(=O)c12 [Compound 167]

# Target: T2, PI3K α (Homo sapiens, UniProt P42336)
# T2 construct: purchased Millipore
# Assay: PI3-Kinase Promega ADP-Glo Max assay
# Type: biochemical
# Settings: 20 nM kinase, 3 mM ATP, 500 uM diC8-PtdInsP
# Method: as §1, §2, §3
row,SMILES,pIC50
1,C[C@H](NC(=O)c1nc(-c2cccc(O)c2)cnc1N)c1cc2cccc(Cl)c2c(=O)n1-c1ccccc1 [Compound 104],< 5.00
2,C[C@H](NC(=O)c1nc(-c2cncc(NS(C)(=O)=O)c2)cnc1N)c1cc2cccc(Cl)c2c(=O)n1-c1ccccc1 [Compound 107],6.00 to 7.00
3,C[C@H](NC(=O)c1nc(-c2ccc(NS(C)(=O)=O)cc2)cnc1N)c1cc2cccc(Cl)c2c(=O)n1-c1ccccc1 [Compound 103],< 5.00

# Second part, the molecule after the results:
row,pIC50,SMILES
1,5.00 to 6.00,COc1cc(-c2cccc3cc([C@H](C)NC(=O)c4c(N)nn5cccnc45)n(-c4cccc(F)c4)c(=O)c23)ccn1 [Compound 189]
2,5.00 to 6.00,Cc1ccn2nc(N)c(C(=O)N[C@@H](C)c3cc4cccc(Cl)c4c(=O)n3-c3ccccc3)c2n1 [Compound 142]
3,< 5.00,COc1ccc(-c2cccc3cc([C@H](C)NC(=O)c4c(N)nn5cccnc45)n(-c4ccccc4)c(=O)c23)cn1 [Compound 223]
4,5.00 to 6.00,CC#Cc1cccc2cc([C@H](C)NC(=O)c3c(N)nn4cccnc34)n(-c3ccccc3)c(=O)c12 [Compound 167]

# Target: T3, PI3K δ (Homo sapiens, UniProt O00329)
# T3 construct: purchased Millipore
# Assay: PI3-Kinase Promega ADP-Glo Max assay
# Type: biochemical
# Settings: 20 nM kinase, 3 mM ATP, 500 uM diC8-PtdInsP
# Method: as §1, §2, §3
# T3 sequence (O00329 whole entry): as the sequence (O00329 whole entry) above
# T3 sequence (P27986 whole entry partner): as the sequence (P27986 whole entry partner) above
row,SMILES,pIC50
1,C[C@H](NC(=O)c1nc(-c2cccc(O)c2)cnc1N)c1cc2cccc(Cl)c2c(=O)n1-c1ccccc1 [Compound 104],< 5.00
2,C[C@H](NC(=O)c1nc(-c2cncc(NS(C)(=O)=O)c2)cnc1N)c1cc2cccc(Cl)c2c(=O)n1-c1ccccc1 [Compound 107],6.00 to 7.00
3,C[C@H](NC(=O)c1nc(-c2ccc(NS(C)(=O)=O)cc2)cnc1N)c1cc2cccc(Cl)c2c(=O)n1-c1ccccc1 [Compound 103],< 5.00

# Second part, the molecule after the results:
row,pIC50,SMILES
1,5.00 to 6.00,COc1cc(-c2cccc3cc([C@H](C)NC(=O)c4c(N)nn5cccnc45)n(-c4cccc(F)c4)c(=O)c23)ccn1 [Compound 189]
2,6.00 to 7.00,Cc1ccn2nc(N)c(C(=O)N[C@@H](C)c3cc4cccc(Cl)c4c(=O)n3-c3ccccc3)c2n1 [Compound 142]
3,5.00 to 6.00,COc1ccc(-c2cccc3cc([C@H](C)NC(=O)c4c(N)nn5cccnc45)n(-c4ccccc4)c(=O)c23)cn1 [Compound 223]
4,5.00 to 6.00,CC#Cc1cccc2cc([C@H](C)NC(=O)c3c(N)nn4cccnc34)n(-c3ccccc3)c(=O)c12 [Compound 167]

# Target: T4, PI3K γ (Homo sapiens, UniProt P48736)
# T4 construct: purchased Millipore
# Assay: PI3-Kinase Promega ADP-Glo Max assay
# Type: biochemical
# Settings: 40 nM kinase, 3 mM ATP, 500 uM diC8-PtdInsP
# Method: Promega ADP-Glo Max assay kit (Cat. No. V7002) was utilized to determine IC50 values for α, β, δ and γ isoforms of human Class I PI3 kinases (Millipore). […] Reactions were incubated at room temperature for 2 hours followed by addition of 25 uL of stop solution. After a 40-minute incubation at room temperature, 50 uL of Promega detection mix was added followed by incubation for 1 hour at room temperature. Plates were then read on Envision plate reader in luminescence mode. Data was converted to % inhibition using the following equation below:
# [formula] where S is the sample luminescence, Pos is a positive control without added PI3K, Neg is the negative control without added compound. Data was then plotted as % inhibition vs compound concentration.
# as §3
# T4 sequence (P48736 whole entry): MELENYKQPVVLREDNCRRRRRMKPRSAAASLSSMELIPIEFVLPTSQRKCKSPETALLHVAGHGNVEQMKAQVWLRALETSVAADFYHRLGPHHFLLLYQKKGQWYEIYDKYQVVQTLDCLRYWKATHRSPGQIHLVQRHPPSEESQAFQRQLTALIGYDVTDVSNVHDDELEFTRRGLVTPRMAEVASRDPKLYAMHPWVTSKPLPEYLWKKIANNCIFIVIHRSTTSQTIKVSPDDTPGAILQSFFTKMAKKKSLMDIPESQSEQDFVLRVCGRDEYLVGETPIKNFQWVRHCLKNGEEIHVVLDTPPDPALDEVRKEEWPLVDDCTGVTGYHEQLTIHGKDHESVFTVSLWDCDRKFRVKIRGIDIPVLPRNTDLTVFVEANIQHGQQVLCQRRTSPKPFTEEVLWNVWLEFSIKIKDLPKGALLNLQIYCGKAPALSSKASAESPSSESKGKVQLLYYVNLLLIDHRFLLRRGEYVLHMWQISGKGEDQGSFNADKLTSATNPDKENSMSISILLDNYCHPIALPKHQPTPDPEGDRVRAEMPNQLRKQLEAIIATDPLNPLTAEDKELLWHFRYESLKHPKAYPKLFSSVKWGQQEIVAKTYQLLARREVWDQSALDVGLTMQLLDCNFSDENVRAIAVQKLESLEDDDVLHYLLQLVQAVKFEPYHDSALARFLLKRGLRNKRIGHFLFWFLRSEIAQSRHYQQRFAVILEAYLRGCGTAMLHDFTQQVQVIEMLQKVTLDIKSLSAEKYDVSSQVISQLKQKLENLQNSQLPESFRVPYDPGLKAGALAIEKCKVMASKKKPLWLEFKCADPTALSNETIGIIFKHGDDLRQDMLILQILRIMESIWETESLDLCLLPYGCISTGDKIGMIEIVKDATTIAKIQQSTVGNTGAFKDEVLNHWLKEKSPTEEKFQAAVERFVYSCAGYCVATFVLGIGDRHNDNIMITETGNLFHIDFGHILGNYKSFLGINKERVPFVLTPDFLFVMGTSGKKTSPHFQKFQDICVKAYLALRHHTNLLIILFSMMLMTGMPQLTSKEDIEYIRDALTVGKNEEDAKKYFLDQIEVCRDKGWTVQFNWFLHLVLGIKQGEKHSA
row,SMILES,pIC50
1,C[C@H](NC(=O)c1nc(-c2cccc(O)c2)cnc1N)c1cc2cccc(Cl)c2c(=O)n1-c1ccccc1 [Compound 104],5.00 to 6.00
2,C[C@H](NC(=O)c1nc(-c2cncc(NS(C)(=O)=O)c2)cnc1N)c1cc2cccc(Cl)c2c(=O)n1-c1ccccc1 [Compound 107],> 7.00
3,C[C@H](NC(=O)c1nc(-c2ccc(NS(C)(=O)=O)cc2)cnc1N)c1cc2cccc(Cl)c2c(=O)n1-c1ccccc1 [Compound 103],5.00 to 6.00

# Further lines, results first:
row,pIC50,SMILES
1,6.00 to 7.00,COc1cc(-c2cccc3cc([C@H](C)NC(=O)c4c(N)nn5cccnc45)n(-c4cccc(F)c4)c(=O)c23)ccn1 [Compound 189]
2,6.00 to 7.00,Cc1ccn2nc(N)c(C(=O)N[C@@H](C)c3cc4cccc(Cl)c4c(=O)n3-c3ccccc3)c2n1 [Compound 142]
3,6.00 to 7.00,COc1ccc(-c2cccc3cc([C@H](C)NC(=O)c4c(N)nn5cccnc45)n(-c4ccccc4)c(=O)c23)cn1 [Compound 223]
4,> 7.00,CC#Cc1cccc2cc([C@H](C)NC(=O)c3c(N)nn4cccnc34)n(-c3ccccc3)c(=O)c12 [Compound 167]

# Target: T5, Raw264.7 p110 γ (Mus musculus, UniProt Q9JHG7)
# T5 construct: reduction of phospho-AKT in stimulated RAW 264.7 cells; endogenous in cells; host or cells: RAW264.7 macrophages
# Assay: Raw264.7 p110 γ cellular assay (phospho-AKT)
# Type: cell-based
# Settings: serum-starved RAW264.7 cells stimulated with C5a
# Excerpt: (b) PI3K-γ Selective Assay
# Briefly, serum-starved PAW264.7 cells are stimulated with a known GPCR agonist C5a. […] Cells can be treated with test compounds prior to, simultaneously with, or subsequent to the stimulation by C5a. RAW 264.7 cells respond to the complement component fragment C5a through activation of the C5a receptor, and the C5a receptor activates macrophages and induces cell migration.
# T5 sequence (Q9JHG7 whole entry): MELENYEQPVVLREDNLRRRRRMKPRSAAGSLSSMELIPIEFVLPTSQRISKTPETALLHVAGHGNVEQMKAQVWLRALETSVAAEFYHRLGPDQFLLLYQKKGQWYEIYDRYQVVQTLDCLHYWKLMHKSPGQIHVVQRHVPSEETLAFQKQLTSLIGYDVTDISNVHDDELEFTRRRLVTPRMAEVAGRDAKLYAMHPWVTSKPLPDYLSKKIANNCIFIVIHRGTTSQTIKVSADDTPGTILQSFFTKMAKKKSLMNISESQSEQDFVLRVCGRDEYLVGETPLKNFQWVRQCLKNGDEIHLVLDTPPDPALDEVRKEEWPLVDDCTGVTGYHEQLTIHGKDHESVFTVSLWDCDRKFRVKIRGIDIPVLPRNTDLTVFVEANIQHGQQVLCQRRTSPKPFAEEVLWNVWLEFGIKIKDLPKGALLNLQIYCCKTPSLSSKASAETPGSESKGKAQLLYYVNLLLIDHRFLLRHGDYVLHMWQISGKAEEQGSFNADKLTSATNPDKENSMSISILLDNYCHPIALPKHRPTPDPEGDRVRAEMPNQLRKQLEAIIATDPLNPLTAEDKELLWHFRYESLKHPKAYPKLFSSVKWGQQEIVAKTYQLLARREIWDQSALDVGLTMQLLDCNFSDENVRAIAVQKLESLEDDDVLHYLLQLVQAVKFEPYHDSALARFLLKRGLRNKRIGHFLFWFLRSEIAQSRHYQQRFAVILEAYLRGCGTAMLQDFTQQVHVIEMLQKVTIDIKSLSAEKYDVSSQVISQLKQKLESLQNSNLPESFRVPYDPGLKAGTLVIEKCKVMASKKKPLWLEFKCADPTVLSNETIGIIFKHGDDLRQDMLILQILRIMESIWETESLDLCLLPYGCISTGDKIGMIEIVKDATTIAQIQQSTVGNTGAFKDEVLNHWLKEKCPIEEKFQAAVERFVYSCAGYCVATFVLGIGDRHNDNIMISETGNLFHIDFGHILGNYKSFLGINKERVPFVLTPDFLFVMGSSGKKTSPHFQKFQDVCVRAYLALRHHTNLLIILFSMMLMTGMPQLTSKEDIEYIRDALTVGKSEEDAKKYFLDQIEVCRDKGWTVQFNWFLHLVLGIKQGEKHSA
row,SMILES,pIC50
1,C[C@H](NC(=O)c1nc(-c2cccc(O)c2)cnc1N)c1cc2cccc(Cl)c2c(=O)n1-c1ccccc1 [Compound 104],6.00 to 7.00
2,C[C@H](NC(=O)c1csc2cccnc12)c1cc2cccc(Cl)c2c(=O)n1-c1ccccc1 [Compound 68],5.00 to 6.00
3,C[C@H](NC(=O)c1nc(-c2cncc(NS(C)(=O)=O)c2)cnc1N)c1cc2cccc(Cl)c2c(=O)n1-c1ccccc1 [Compound 107],> 7.00
4,C[C@H](NC(=O)c1nc(-c2ccc(NS(C)(=O)=O)cc2)cnc1N)c1cc2cccc(Cl)c2c(=O)n1-c1ccccc1 [Compound 103],6.00 to 7.00

# Other lines, results leading:
row,pIC50,SMILES
1,> 7.00,COc1cc(-c2cccc3cc([C@H](C)NC(=O)c4c(N)nn5cccnc45)n(-c4cccc(F)c4)c(=O)c23)ccn1 [Compound 189]
2,> 7.00,Cc1ccn2nc(N)c(C(=O)N[C@@H](C)c3cc4cccc(Cl)c4c(=O)n3-c3ccccc3)c2n1 [Compound 142]
3,> 7.00,COc1ccc(-c2cccc3cc([C@H](C)NC(=O)c4c(N)nn5cccnc45)n(-c4ccccc4)c(=O)c23)cn1 [Compound 223]
4,> 7.00,CC#Cc1cccc2cc([C@H](C)NC(=O)c3c(N)nn4cccnc34)n(-c3ccccc3)c(=O)c12 [Compound 167]
